Where a name gives a salt, the structure may show the parent alone.
Experiments:
Details in all cases: incubation time: 27 h, anaerobic, 37 °C
[1] = tested on: Clostridium sporogenes DSM 1664; experiment: fold change of Tryptamine concentration vs plate DMSO controls (fold change (ratio)); higher = more amine produced
[2] = tested on: Clostridium sporogenes DSM 1664; experiment: growth (OD595) fold change vs plate DMSO controls (fold change (ratio)); higher = more growth
[3] = tested on: Escherichia coli IAI1; experiment: fold change of Putrescine concentration vs plate DMSO controls (fold change (ratio)); higher = more amine produced
[4] = tested on: Escherichia coli IAI1; experiment: growth (OD595) fold change vs plate DMSO controls (fold change (ratio)); higher = more growth
[5] = tested on: Escherichia coli IAI1; experiment: fold change of Cadaverine concentration vs plate DMSO controls (fold change (ratio)); higher = more amine produced
[6] = tested on: Ruminococcus gnavus DSM 108212; experiment: fold change of 2-Phenylethylamine concentration vs plate DMSO controls (fold change (ratio)); higher = more amine produced
[7] = tested on: Ruminococcus gnavus DSM 108212; experiment: fold change of Tryptamine concentration vs plate DMSO controls (fold change (ratio)); higher = more amine produced
[8] = tested on: Ruminococcus gnavus DSM 108212; experiment: growth (OD595) fold change vs plate DMSO controls (fold change (ratio)); higher = more growth

Cc1ncc([N+](=O)[O-])n1CCO [Metronidazole]
Details	fold change of Tryptamine concentration, [1]	growth, [2]
0.6125 µM	0.744	1.05
1.25 µM	0.758	1.12
2.5 µM	0.55	1.08
5 µM	0.0225	-0.0178
10 µM	0.0206	-0.0224
20 µM	0.0183	-0.023

CO/N=C(\C(=O)N[C@@H]1C(=O)N2C(C(=O)O)=C(COC(N)=O)CS[C@H]12)c1ccco1 [Cefuroxime sodium salt]
Details	fold change of Cadaverine concentration, [5]	fold change of Putrescine concentration, [3]	fold change of Tryptamine concentration, [1]	growth, [2]	growth, [4]
0.6125 µM	1.11	0.907	1.01	0.8	0.872
1.25 µM	1.13	0.853	1.01	0.69	0.929
2.5 µM	1.09	0.758	1.04	0.755	1.03
5 µM	2.02	1.11	0.764	0.214	0.923
10 µM	2.06	2.59	0.0406	-0.0277	0.171
20 µM	2.13	1.24	0.0242	-0.0443	0.0264

CN(C)[C@@H]1C(=O)C(C(N)=O)=C(O)[C@@]2(O)C(=O)C3=C(O)c4c(O)cccc4[C@@](C)(O)[C@H]3[C@H](O)[C@@H]12 [Oxytetracycline dihydrate]
Details	fold change of 2-Phenylethylamine concentration, [6]	fold change of Tryptamine concentration, [7]	growth, [8]
0.6125 µM	0.956	1.13	0.833
1.25 µM	1.13	1.31	0.83
2.5 µM	1.34	1.69	0.68
5 µM	2.06	2.71	0.594
10 µM	2.02	2.8	0.414
20 µM	2.08	2.82	0.356

COc1cccc(OC)c1C(=O)N[C@@H]1C(=O)N2[C@@H]1SC(C)(C)[C@@H]2C(=O)O [Methicillin sodium]
Details	fold change of Tryptamine concentration, [1]	growth, [2]
0.6125 µM	1.02	0.843
1.25 µM	1	0.888
2.5 µM	1.01	0.839
5 µM	0.915	0.95
10 µM	0.779	0.469
20 µM	0.417	0.469

CCn1cc(C(=O)O)c(=O)c2cc3c(cc21)OCO3 [Oxolinic acid]
Details	fold change of Tryptamine concentration, [1]	growth, [2]
0.6125 µM	0.975	1.04
1.25 µM	1.03	0.931
2.5 µM	1.13	1.05
5 µM	0.788	0.775
10 µM	0.446	0.806
20 µM	0.0475	-0.028

CO[C@@]12[C@H](COC(N)=O)C3=C(C(=O)C(C)=C(N)C3=O)N1C[C@@H]1N[C@@H]12 [Mitomycin C]
Details	fold change of Cadaverine concentration, [5]	fold change of Putrescine concentration, [3]	growth, [4]
0.6125 µM	1.42	0.929	0.872
1.25 µM	1.59	1.35	0.904
2.5 µM	1.98	1.27	0.925
5 µM	1.94	1.13	1.05
10 µM	1.25	0.82	0.764
20 µM	0.41	0.673	-0.0235

CC[C@@]1([C@@H]2O[C@@H]([C@H]3O[C@@](O)(CO)[C@H](C)C[C@@H]3C)C[C@@H]2C)CC[C@H]([C@]2(C)CC[C@]3(C[C@H](O)[C@@H](C)[C@@H]([C@@H](C)[C@@H](OC)[C@H](C)C(=O)O)O3)O2)O1 [Monensin sodium salt]
Details	fold change of Tryptamine concentration, [1]	growth, [2]
0.6125 µM	0.986	0.907
1.25 µM	0.919	0.829
2.5 µM	0.785	0.712
5 µM	0.555	0.829
10 µM	0.39	0.664
20 µM	0.267	0.516

CO[C@H]1C[C@H](O[C@H]2[C@H](C)[C@@H](O[C@@H]3O[C@H](C)C[C@H](N(C)C)[C@H]3OC(C)=O)[C@@H](C)C[C@@]3(CO3)C(=O)[C@H](C)[C@@H](OC(C)=O)[C@@H](C)[C@@H](C)OC(=O)[C@@H]2C)O[C@@H](C)[C@@H]1OC(C)=O [Troleandomycin]
Details	fold change of Tryptamine concentration, [1]	growth, [2]
0.6125 µM	1.07	1.05
1.25 µM	1.17	1.01
2.5 µM	1.21	0.886
5 µM	1.21	0.87
10 µM	0.983	0.89
20 µM	0.344	0.236

C=CC1=C(C(=O)O)N2C(=O)[C@@H](NC(=O)/C(=N\O)c3csc(N)n3)[C@H]2SC1 [Cefdinir]
Details	fold change of Cadaverine concentration, [5]	fold change of Putrescine concentration, [3]	growth, [4]
0.6125 µM	1.1	0.759	0.899
1.25 µM	1.18	0.836	0.905
2.5 µM	1.98	1.47	0.0538
5 µM	0.812	0.282	-0.042
10 µM	0.533	0.152	-0.0507
20 µM	1.17	0.342	-0.0475

CC(C)(c1cc(Br)c(O)c(Br)c1)c1cc(Br)c(O)c(Br)c1 [TBBPA]
Details	fold change of Tryptamine concentration, [1]	growth, [2]
0.6125 µM	1.18	1.09
1.25 µM	1.18	1.16
2.5 µM	1.18	1.25
5 µM	1.27	1.25
10 µM	0.379	0.452
20 µM	0.0168	-0.0298

C=CC1=C(C(=O)O)N2C(=O)[C@@H](NC(=O)/C(=N\OCC(=O)O)c3csc(N)n3)[C@H]2SC1 [Cefixime]
Details	fold change of Cadaverine concentration, [5]	fold change of Putrescine concentration, [3]	fold change of Tryptamine concentration, [1]	growth, [2]	growth, [4]
0.6125 µM	1.07	0.815	0.977	1.05	0.848
1.25 µM	1.07	0.897	0.994	1.02	0.903
2.5 µM	1.72	0.839	0.974	0.842	0.859
5 µM	2.01	2.82	0.937	0.82	0.193
10 µM	2.2	1.37	0.925	0.675	0.0344
20 µM	2.17	1.16	0.887	0.527	-0.00514

CC(=O)NC[C@H]1CN(c2ccc(N3CCOCC3)c(F)c2)C(=O)O1 [Linezolid]
Details	fold change of Tryptamine concentration, [1]	growth, [2]
0.6125 µM	0.966	1.14
1.25 µM	0.923	1.05
2.5 µM	0.894	1.06
5 µM	0.77	0.814
10 µM	0.51	0.563
20 µM	0.0345	-0.0339

CS(=O)(=O)c1ccc([C@@H](O)[C@@H](CO)NC(=O)C(Cl)Cl)cc1 [Thiamphenicol]
Details	fold change of 2-Phenylethylamine concentration, [6]	fold change of Tryptamine concentration, [7]	growth, [8]
0.6125 µM	1.16	1.04	0.84
1.25 µM	1.23	0.877	0.789
2.5 µM	0.61	0.535	0.797
5 µM	0.471	0.443	0.686
10 µM	0.3	0.342	0.57
20 µM	0.329	0.267	0.38
